One block for each compound: values may come before it.
Tests used:
human Nav1.1 = molecular target: T1, human Nav1.1 (Homo sapiens, UniProt P35498); assay: Amplification of Nav1.1-derived voltage-dependent sodium current (Nav1.1 current), cell line stably expressing human Nav1.1, automated patch clamp; assay type: cell-based; conditions: for activation at 10 µM: read-out: Nav1.1 current amplification rate (%)
T1 construct: host or cells: HEK293
Outline: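 Amplification rate (%) is 100 × post-compound/pre-compound Nav1.1 peak current or AUC, minus 100. Ramp-evoked sodium currents were recorded by automated patch clamp in a human Nav1.1 HEK293 stable line, restricted to cells exceeding 500 pA, with compounds added in extracellular solution containing 1% DMSO.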

human Nav1.5 = molecular target: T2, human Nav1.5 (Homo sapiens, UniProt Q14524); assay: Amplification of Nav1.5-derived voltage-dependent sodium current (Nav1.5 current), cell line stably expressing human Nav1.5, automated patch clamp; assay type: cell-based; conditions: for activation at 10 µM: read-out: Nav1.5 current amplification rate (%)
T2 construct: expressed in transfected cells; host or cells: CHO-K1 (T-REx System, ThermoFisher Scientific)
T2 sequence (Q14524 1-2015 isoform Q14524-2): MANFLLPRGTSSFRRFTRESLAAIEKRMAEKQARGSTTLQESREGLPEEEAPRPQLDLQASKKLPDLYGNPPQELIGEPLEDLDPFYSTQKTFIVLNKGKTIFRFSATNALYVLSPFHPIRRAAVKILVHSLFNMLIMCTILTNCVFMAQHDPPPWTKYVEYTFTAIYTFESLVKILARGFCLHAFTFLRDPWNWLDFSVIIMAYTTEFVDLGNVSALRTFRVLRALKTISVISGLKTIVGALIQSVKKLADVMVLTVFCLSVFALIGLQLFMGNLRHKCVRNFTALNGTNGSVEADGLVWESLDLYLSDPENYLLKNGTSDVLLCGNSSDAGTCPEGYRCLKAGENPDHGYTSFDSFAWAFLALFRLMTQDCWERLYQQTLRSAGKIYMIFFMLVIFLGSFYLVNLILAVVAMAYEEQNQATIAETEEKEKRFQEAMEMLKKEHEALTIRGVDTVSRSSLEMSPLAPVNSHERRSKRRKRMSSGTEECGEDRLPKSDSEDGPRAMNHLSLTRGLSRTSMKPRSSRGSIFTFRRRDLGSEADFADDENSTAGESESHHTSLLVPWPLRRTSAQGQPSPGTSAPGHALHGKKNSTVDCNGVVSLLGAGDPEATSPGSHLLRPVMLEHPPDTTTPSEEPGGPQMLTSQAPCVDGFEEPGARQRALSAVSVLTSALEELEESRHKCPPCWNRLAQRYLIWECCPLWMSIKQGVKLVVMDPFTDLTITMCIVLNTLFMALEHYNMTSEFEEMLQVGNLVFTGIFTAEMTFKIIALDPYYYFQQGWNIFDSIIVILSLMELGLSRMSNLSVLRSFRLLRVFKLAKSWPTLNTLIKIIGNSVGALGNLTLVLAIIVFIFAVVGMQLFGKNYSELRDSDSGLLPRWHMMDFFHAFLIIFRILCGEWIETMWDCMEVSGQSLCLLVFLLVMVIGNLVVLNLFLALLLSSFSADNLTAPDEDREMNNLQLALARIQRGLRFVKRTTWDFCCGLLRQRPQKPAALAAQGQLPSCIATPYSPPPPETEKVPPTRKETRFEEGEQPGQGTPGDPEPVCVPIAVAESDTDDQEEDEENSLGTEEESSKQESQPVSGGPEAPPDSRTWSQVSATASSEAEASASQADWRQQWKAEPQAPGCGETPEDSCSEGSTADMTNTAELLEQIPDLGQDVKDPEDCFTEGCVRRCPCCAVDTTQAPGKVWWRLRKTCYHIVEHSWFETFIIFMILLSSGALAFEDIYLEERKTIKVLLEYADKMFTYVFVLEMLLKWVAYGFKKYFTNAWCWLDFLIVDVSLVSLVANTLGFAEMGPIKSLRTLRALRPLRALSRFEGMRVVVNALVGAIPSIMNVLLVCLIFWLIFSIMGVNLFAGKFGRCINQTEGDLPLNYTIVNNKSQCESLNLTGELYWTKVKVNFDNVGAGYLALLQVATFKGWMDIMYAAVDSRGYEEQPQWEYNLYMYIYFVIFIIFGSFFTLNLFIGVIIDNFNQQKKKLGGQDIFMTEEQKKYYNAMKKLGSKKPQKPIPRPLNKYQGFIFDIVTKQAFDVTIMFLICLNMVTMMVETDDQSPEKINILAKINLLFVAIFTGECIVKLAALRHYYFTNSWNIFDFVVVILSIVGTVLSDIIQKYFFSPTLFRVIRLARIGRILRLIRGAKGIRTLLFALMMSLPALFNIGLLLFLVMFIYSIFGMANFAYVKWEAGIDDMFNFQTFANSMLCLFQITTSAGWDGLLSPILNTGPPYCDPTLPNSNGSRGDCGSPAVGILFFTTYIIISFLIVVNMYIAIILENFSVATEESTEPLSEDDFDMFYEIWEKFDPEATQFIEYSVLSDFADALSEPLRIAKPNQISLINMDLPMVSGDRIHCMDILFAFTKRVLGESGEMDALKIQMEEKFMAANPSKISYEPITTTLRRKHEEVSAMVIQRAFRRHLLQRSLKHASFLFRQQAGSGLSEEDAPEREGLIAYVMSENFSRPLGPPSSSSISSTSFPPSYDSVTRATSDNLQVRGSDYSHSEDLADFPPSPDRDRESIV
Procedure: Test 2: Evaluation of the Amplification in Nav1.5-Derived Voltage-Dependent Sodium Current (Nav1.5 Current) by Using a Cell Line Stably Expressing Human Nav1.5
A CHO-K1 cell line (Chinese hamster ovary) stably expressing human Nav1.5 (Gene Bank Accession No: P000326.2) was obtained by using purchased T-Rex System (ThermoFisher Scientific, USA), and used for the present test. The effect of test compounds on the amplification of Nav1.5 current was evaluated by using a cell line stably expressing human Nav1.5 and HTS automated patch clamp system, similarly in the method using Nav1.1. In other words, test compounds were added in an extracellular fluid which contained 1% DMSO and 500 nmol/L Tetrodotoxin (TTX), and evaluated as a change of the peak value of Nav1.5 current and the area under the curve (AUC). The induction and the measurement of Nav1.5 current, the pharmacologic effect on Nav1.5 current, and a method for pharmacological evaluation were carried out by the same method as in Nav1.1.

[1] = 10 μmol/L compound, change of the area under the curve of Nav1.1 current (Test Result 1)
[2] = 10 μmol/L compound, change of the area under the curve of Nav1.5 current (Test Result 1)
[3] = compound 3 μmol/L, HEK293 stably expressing human Nav1.1
[4] = compound 3 μmol/L, CHO-K1 stably expressing human Nav1.5
[5] = compound 1 μmol/L, HEK293 stably expressing human Nav1.1
[6] = compound 1 μmol/L, CHO-K1 stably expressing human Nav1.5

Nav1.1 current amplification rate (%) (human Nav1.1; [1]): 273%
SMILES: CC1CC=C(c2ccc(=O)n(CC(=O)N3CC=C(c4cncc(F)c4)CC3)n2)CC1 (racemic) [Example 397]
Nav1.5 current amplification rate (%) (human Nav1.5; [2]): 49%

Nav1.1 current amplification rate (%) (human Nav1.1; [1]): 187%
SMILES: COc1cc(=O)n(CC(=O)Nc2ccc3ocnc3c2)nc1C1=CCC(C(F)(F)F)CC1 (stereo not drawn) [Example 450]
Nav1.5 current amplification rate (%) (human Nav1.5; [2]): 5%

activation at 10 µM (human Nav1.1; [1]): 262%
SMILES: Cc1cc(C2=CCC(C)(C)CC2)nn(CC(=O)N2CCN(c3cccnc3)CC2)c1=O [Example 513]
activation at 10 µM (human Nav1.5; [2]): 4%

Nav1.1 current amplification rate (%) (human Nav1.1; [5]): 130%
SMILES: CC1CC=C(c2ccc(=O)n(CC(=O)Nc3ccc4ncncc4c3)n2)CC1 (racemic) [Example 355]
Nav1.5 current amplification rate (%) (human Nav1.5; [6]): 28%

Nav1.1 current amplification rate (%) (human Nav1.1; [3]): 55%
SMILES: CC1CC=C(c2ccc(=O)n(CC(=O)N3CCc4c(C5CCNC5)cccc43)n2)CC1 (mixture of isomers) [Example 268]
Nav1.5 current amplification rate (%) (human Nav1.5; [4]): 22%

Nav1.1 current amplification rate (%) (human Nav1.1; [5]): 110%
SMILES: O=C(Cn1nc(C2=CCCCC2)ccc1=O)N1CCc2c(N3CCOCC3)cccc21 [Example 480]
Nav1.5 current amplification rate (%) (human Nav1.5; [6]): 7%

Nav1.1 current amplification rate (%) (human Nav1.1; [1]): 235%
SMILES: COc1cc(C2=CCC(C(F)(F)F)CC2)nn(CC(=O)N2CCc3c(N4CCOCC4)cccc32)c1=O (racemic) [Example 474]
Nav1.5 current amplification rate (%) (human Nav1.5; [2]): 26%

Nav1.1 current amplification rate (%) (human Nav1.1; [5]): 84%
SMILES: CC1CC=C(c2ccc(=O)n(CC(=O)N3CCc4c(CNC5COC5)cccc43)n2)CC1 (racemic) [Example 313]
Nav1.5 current amplification rate (%) (human Nav1.5; [6]): 133%

Nav1.1 current amplification rate (%) (human Nav1.1; [3]): 23%
SMILES: CC1CC=C(c2ccc(=O)n(CC(=O)N3C[C@H](C)N(c4cccnc4)C[C@H]3C)n2)CC1 (stereo partly drawn) [Example 417]
Nav1.5 current amplification rate (%) (human Nav1.5; [4]): 1%

Nav1.1 current amplification rate (%) (human Nav1.1; [1]): 469%
SMILES: COc1cc(=O)n(CC(=O)N2CCN(c3cncc(F)c3)CC2)nc1C1=CCC(C)(C)CC1 [Example 490]
Nav1.5 current amplification rate (%) (human Nav1.5; [2]): 25%

Nav1.1 current amplification rate (%) (human Nav1.1; [5]): 200%
SMILES: CC1CC=C(c2ccc(=O)n(CC(=O)Nc3ccc(C#N)nc3)n2)CC1 (racemic) [Example 360]
Nav1.5 current amplification rate (%) (human Nav1.5; [6]): 100%

Nav1.1 current amplification rate (%) (human Nav1.1; [1]): 414%
SMILES: Cc1cncc(N2CCN(C(=O)Cn3nc(C4=CCC(C)(C)CC4)ccc3=O)CC2)c1 [Example 442]
Nav1.5 current amplification rate (%) (human Nav1.5; [2]): 27%

Nav1.1 current amplification rate (%) (human Nav1.1; [1]): 175%
SMILES: CC1(C)CC=C(c2ccc(=O)n(CC(=O)N3CCN(c4cncc(F)c4)CC3)n2)C1 [Example 483]
Nav1.5 current amplification rate (%) (human Nav1.5; [2]): 7%

Nav1.1 current amplification rate (%) (human Nav1.1; [1]): 262%
SMILES: COCOc1cccc2c1CCN2C(=O)Cn1nc(C2=CCC(C)(C)CC2)ccc1=O [Example 435]
Nav1.5 current amplification rate (%) (human Nav1.5; [2]): 14%

Nav1.1 current amplification rate (%) (human Nav1.1; [1]): 192%
SMILES: CN1CCN(c2cccc3c2CCN3C(=O)Cn2nc(C3=CCC(C)(C)CC3)ccc2=O)CC1 [Example 433]
Nav1.5 current amplification rate (%) (human Nav1.5; [2]): 10%

Nav1.1 current amplification rate (%) (human Nav1.1; [1]): 148%
SMILES: COc1cc(=O)n(CC(=O)N2CCN(c3cncc(F)c3)CC2)nc1C1=CCC(C(F)(F)F)CC1 (racemic) [Example 486]
Nav1.5 current amplification rate (%) (human Nav1.5; [2]): 8%

Nav1.1 current amplification rate (%) (human Nav1.1; [3]): 108%
SMILES: CC1CC=C(c2ccc(=O)n(CC(=O)N3CCc4c(CO)cccc43)n2)CC1 (racemic) [Example 266]
Nav1.5 current amplification rate (%) (human Nav1.5; [4]): 128%

Nav1.1 current amplification rate (%) (human Nav1.1; [3]): 481%
SMILES: CC1CC=C(c2ccc(=O)n(CC(=O)N3CCc4c(CN5CCOCC5)cccc43)n2)CC1 (racemic) [Example 270]
Nav1.5 current amplification rate (%) (human Nav1.5; [4]): 78%

Nav1.1 current amplification rate (%) (human Nav1.1; [5]): 265%
SMILES: CC1CC=C(c2ccc(=O)n(CC(=O)N3CCc4c(-c5cn[nH]c5)cncc43)n2)CC1 (racemic) [Example 311]
Nav1.5 current amplification rate (%) (human Nav1.5; [6]): 52%

Nav1.1 current amplification rate (%) (human Nav1.1; [3]): 345%
SMILES: O=C(Cn1nc(C2=CCC3(CC2)CC3(F)F)ccc1=O)N1CCc2c(N3CCOCC3)cccc21 (racemic) [Example 478]
Nav1.5 current amplification rate (%) (human Nav1.5; [4]): 23%

Nav1.1 current amplification rate (%) (human Nav1.1; [1]): 219%
SMILES: COc1cc(C2=CCC(C(F)(F)F)CC2)nn(CC(=O)N2CCN(c3cncc(F)c3)CC2)c1=O (racemic) [Example 482]
Nav1.5 current amplification rate (%) (human Nav1.5; [2]): 8%

Continued, compound first:

SMILES: O=C(Cn1nc(N2CCC3(CCC3)C2)ccc1=O)N1CCN(c2ccccc2)CC1 [Example 188]
activation at 10 µM (human Nav1.1; [1]): 30%
activation at 10 µM (human Nav1.5; [2]): -2%

SMILES: Cc1ncc(-c2cccc3c2CCN3C(=O)Cn2nc(C3=CCC(C)CC3)ccc2=O)cn1 (racemic) [Example 264]
Nav1.1 current amplification rate (%) (human Nav1.1; [3]): 597%
Nav1.5 current amplification rate (%) (human Nav1.5; [4]): 65%

SMILES: CC1CCN(c2ccc(=O)n(CC(=O)Nc3ccc4ncoc4c3)n2)CC1 [Example 73]
Nav1.1 current amplification rate (%) (human Nav1.1; [1]): 92%
Nav1.5 current amplification rate (%) (human Nav1.5; [2]): 1%

SMILES: COC(=O)c1ccc(NC(=O)Cn2nc(N3CCC(C)CC3)ccc2=O)cn1 [Example 182]
activation at 10 µM (human Nav1.1; [1]): 32%
activation at 10 µM (human Nav1.5; [2]): 17%

SMILES: O=C(Cn1nc(N2CCC3(CCC3)C2)ccc1=O)Nc1ccc2c(c1)OCC2 [Example 172]
activation at 10 µM (human Nav1.1; [1]): 117%
activation at 10 µM (human Nav1.5; [2]): 4%

SMILES: Cc1nc2cc(NC(=O)Cn3nc(N4CCC(C)CC4)ccc3=O)ccc2s1 [Example 88]
Nav1.1 current amplification rate (%) (human Nav1.1; [1]): 183%
Nav1.5 current amplification rate (%) (human Nav1.5; [2]): 31%

SMILES: CC1CCN(c2ccc(=O)n(CC(=O)Nc3ccc4ocnc4c3)n2)CC1 [Example 50, N-(1,3-benzooxazol-5-yl)-2-[3-(4-methylpiperidin-1-yl)-6-oxopyridazin-1(6H)-yl]acetamide]
activation at 10 µM (human Nav1.1; [1]): 155%
activation at 10 µM (human Nav1.5; [2]): 4%

SMILES: CC1CC=C(c2ccc(=O)n(CC(=O)Nc3cc(F)c4ocnc4c3)n2)CC1 (racemic) [Example 241]
Nav1.1 current amplification rate (%) (human Nav1.1; [1]): 260%
Nav1.5 current amplification rate (%) (human Nav1.5; [2]): 26%

SMILES: Cc1c(N2CCC(C)CC2)nn(CC(=O)Nc2ccc(C#N)nc2)c(=O)c1C [Example 100]
activation at 10 µM (human Nav1.1; [1]): 197%
activation at 10 µM (human Nav1.5; [2]): 56%

SMILES: Cc1ccc(-c2ccc(=O)n(CC(=O)N3CCc4cc(N5CCOCC5)ccc43)n2)cc1 [Example 158]
Nav1.1 current amplification rate (%) (human Nav1.1; [1]): 122%
Nav1.5 current amplification rate (%) (human Nav1.5; [2]): 30%

SMILES: O=C(Cn1nc(N2CCC3(CCC3)C2)ccc1=O)N1CCc2cc(N3CCOCC3)ccc21 [Example 184]
activation at 10 µM (human Nav1.1; [1]): 35%
activation at 10 µM (human Nav1.5; [2]): 16%

SMILES: Cc1c(N2CCC3(CCC3)C2)nn(CC(=O)Nc2ccn3ccnc3c2)c(=O)c1C [Example 209]
activation at 10 µM (human Nav1.1; [1]): 179%
activation at 10 µM (human Nav1.5; [2]): 16%

SMILES: CC1CCN(c2ccc(=O)n(CC(=O)Nc3ccn4nccc4c3)n2)CC1 [Example 71]
Nav1.1 current amplification rate (%) (human Nav1.1; [1]): 131%
Nav1.5 current amplification rate (%) (human Nav1.5; [2]): 13%

SMILES: N#Cc1ccc(NC(=O)Cn2nc(N3CCCCCC3)ccc2=O)cn1 [Example 119]
activation at 10 µM (human Nav1.1; [1]): 120%
activation at 10 µM (human Nav1.5; [2]): 25%

SMILES: O=C(Cn1nc(N2CCC3(CCCC3)CC2)ccc1=O)Nc1ccc2ocnc2c1 [Example 135]
activation at 10 µM (human Nav1.1; [1]): 195%
activation at 10 µM (human Nav1.5; [2]): 2%

SMILES: CC1CCN(c2ccc(=O)n(CC(=O)Nc3cccc(-c4nccs4)c3)n2)CC1 [Example 80]
Nav1.1 current amplification rate (%) (human Nav1.1; [1]): 131%
Nav1.5 current amplification rate (%) (human Nav1.5; [2]): -3%

SMILES: Cc1ccc(-c2nn(CC(=O)Nc3ccn4ccnc4c3)c(=O)c(C)c2C)cc1 [Example 156]
Nav1.1 current amplification rate (%) (human Nav1.1; [1]): 33%
Nav1.5 current amplification rate (%) (human Nav1.5; [2]): 4%

SMILES: Cc1c(N2CCC3(CCCC3)C2)nn(CC(=O)Nc2ccc3ocnc3c2)c(=O)c1C [Example 165]
activation at 10 µM (human Nav1.1; [1]): 146%
activation at 10 µM (human Nav1.5; [2]): 11%

Source: US20220347175A1, “PYRIDAZINONE DERIVATIVE” (Sumitomo Dainippon Pharma Co., Ltd., priority 2018, published 2022)
